Patent US20260365670A1, “EGFR INHIBITORS AND USES THEREOF” (DIZAL (JIANGSU) PHARMACEUTICAL CO., LTD., priority 2022, published 2026)
Read-outs that look alike come from different tables or passages of the source.

Tests used:
PC-9 = experiment: Cell proliferation assay, PC-9 cells (CellTiter-Glo, 72 hours); assay type: cell-based; details: PC9 cells, read-out: GI50 PC9
Outline: (§1)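 Ba/F3 cells carrying EGFR mutants (5000/well) or PC-9 cells (500/well) in RPMI1640 were dosed with compound series after overnight attachment and grown 72 h. Viability read by CellTiter-Glo, with day-0 counts subtracted; GI50 from curve fits of % proliferation versus DMSO control.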

EGFR L858R = biological target: T1, EGFR L858R (Homo sapiens, UniProt P00533, L858R); experiment: Inhibition of EGFR L858R biochemical enzymatic activity (HTRF); details: 1 mM ATP, 1 h at room temperature
T1 construct: purchased Carna Bio
Outline: (§2)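 Using a high ATP level (1 mM), wild-type and mutant EGFR enzymes were incubated 1 h at room temperature with inhibitor and 1 μM biotinylated TK substrate. Phosphorylation was quantified as the 665/615 nm HTRF ratio. IC50s were derived by logistic fitting.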

[1] = test system: Ba/F3 cells expressing EGFR mutations; experiment: Cell proliferation assay, Ba/F3 cells expressing EGFR mutations (CellTiter-Glo, 72 hours); assay type: cell-based
Outline: as §1

A-431 = experiment: Cell proliferation assay, A-431 cells (GI50, Table 6); assay type: cell-based
Method: [Worded in the source for another cell line; this cell line is reported under the same test.] Ba/F3 cells expressing EGFR mutations were seeded in 384-well plates at 5000 cells/well in RPMI1640 medium containing […]. PC-9 at 500 cells/well was seeded into 384-well plates in RPMI1640 medium with 10% FBS. After overnight incubation, the assay plates were dosed with compounds at a series of concentrations. Alongside dosing the assay plates, the day 0 plate was processed using CellTiter-Glo® Luminescent Cell Viability Assay (Promega) to measure the number of viable cells (G0). The assay plates were further incubated for 72 hours and the number of viable cells (G3) was measured. The percentage of proliferation was calculated as: […]=100×(G3 value of sample well−G0 value)/(G3 value of DMSO control−G0 value). The concentration of compound producing 50% proliferation inhibition (GI50) was further calculated in best-fit curves using XLFit software. N/A=not available.

EGFR (d746-750 C797S) = biological target: T2, EGFR (d746-750 C797S) (Homo sapiens, UniProt P00533, C797S/DEL746-750); experiment: Inhibition of EGFR (d746-750 C797S) biochemical enzymatic activity (HTRF); details: EGFR (d746-750 C797S), 1 mM ATP, 1 h at room temperature
T2 construct: purchased signalchem
Outline: as §2

EGFR wild type = biological target: T3, EGFR wild type (Homo sapiens, UniProt P00533); experiment: Inhibition of EGFR wild type biochemical enzymatic activity (HTRF); details: EGFR wild type, 1 mM ATP, 1 h at room temperature
T3 construct: purchased Carna Bio
Outline: as §2

EGFR Exon19Del/T790M = biological target: T4, EGFR Exon19Del/T790M (Homo sapiens, UniProt P00533, DEL746-750/T790M); experiment: Inhibition of EGFR Exon19Del/T790M biochemical enzymatic activity (HTRF); details: EGFR Exon19Del/T790M, 1 mM ATP, 1 h at room temperature
T4 construct: purchased Carna Bio
Outline: as §2

EGFR L858R/T790M = biological target: T5, EGFR L858R/T790M (Homo sapiens, UniProt P00533, L858R/T790M); experiment: Inhibition of EGFR L858R/T790M biochemical enzymatic activity (HTRF); details: EGFR L858R/T790M, 1 mM ATP, 1 h at room temperature
T5 construct: purchased Carna Bio
Outline: as §2

EGFR Exon19Del = biological target: T6, EGFR Exon19Del (Homo sapiens, UniProt P00533, DEL746-750); experiment: Inhibition of EGFR Exon19Del biochemical enzymatic activity (HTRF); details: 1 mM ATP, 1 h at room temperature
T6 construct: purchased Carna Bio
Outline: as §2

EGFR[T790M/C797S/L858R] = biological target: T7, EGFR[T790M/C797S/L858R] (Homo sapiens, UniProt P00533, C797S/L858R/T790M); experiment: Inhibition of EGFR[T790M/C797S/L858R] biochemical enzymatic activity (HTRF); details: EGFR[T790M/C797S/L858R], 1 mM ATP, 1 h at room temperature
T7 construct: purchased Carna Bio
Outline: as §2

[2] = biological target: T8, EGFR[T790M/C797S/d746-750] (Homo sapiens, UniProt P00533, C797S/DEL746-750/T790M); experiment: Inhibition of EGFR[T790M/C797S/d746-750] biochemical enzymatic activity (HTRF); details: 1 mM ATP, 1 h at room temperature
T8 construct: purchased Carna Bio
Outline: as §2

EGFR (C797S L858R) = biological target: T9, EGFR (C797S L858R) (Homo sapiens, UniProt P00533, C797S/L858R); experiment: Inhibition of EGFR (C797S L858R) biochemical enzymatic activity (HTRF); details: EGFR (C797S L858R), 1 mM ATP, 1 h at room temperature
T9 construct: purchased signalchem
Outline: as §2

[3] = Homo sapiens, A-431, A-431 cells
[4] = EGFR Exon19Del, read-out: IC50 @Del19
[5] = read-out: IC50 @T790M- C797S - L858R
[6] = EGFR[T790M/C797S/d746-750], read-out: IC50 @T790M - C797S - Del19
[7] = BaF3 cells, EGFR DEL19 - C797S, read-out: GI50 DEL19 - C797S/BaF3
[8] = BaF3 cells, EGFR DEL19 - T790-C797S, read-out: GI50 DEL19 - T790-C797S/BaF3
[9] = BaF3 cells, EGFR L858R - C797S, read-out: GI50 L858R - C797S/BaF3
[10] = BaF3 cells, EGFR L858R - T790-C797S, read-out: GI50 L858R - T790-C797S/BaF3
[11] = BaF3 cells, EGFR L858R - T790M, read-out: GI50 L858R - T790M/BaF3
[12] = BaF3 cells, EGFR L858R, read-out: GI50 L858R/BaF3
[13] = EGFR DEL19 - T790M, read-out: GI50 DEL19 - T790M

T6 sequence (P00533 with tags, fused parts or gaps DEL746-750 limits assumed): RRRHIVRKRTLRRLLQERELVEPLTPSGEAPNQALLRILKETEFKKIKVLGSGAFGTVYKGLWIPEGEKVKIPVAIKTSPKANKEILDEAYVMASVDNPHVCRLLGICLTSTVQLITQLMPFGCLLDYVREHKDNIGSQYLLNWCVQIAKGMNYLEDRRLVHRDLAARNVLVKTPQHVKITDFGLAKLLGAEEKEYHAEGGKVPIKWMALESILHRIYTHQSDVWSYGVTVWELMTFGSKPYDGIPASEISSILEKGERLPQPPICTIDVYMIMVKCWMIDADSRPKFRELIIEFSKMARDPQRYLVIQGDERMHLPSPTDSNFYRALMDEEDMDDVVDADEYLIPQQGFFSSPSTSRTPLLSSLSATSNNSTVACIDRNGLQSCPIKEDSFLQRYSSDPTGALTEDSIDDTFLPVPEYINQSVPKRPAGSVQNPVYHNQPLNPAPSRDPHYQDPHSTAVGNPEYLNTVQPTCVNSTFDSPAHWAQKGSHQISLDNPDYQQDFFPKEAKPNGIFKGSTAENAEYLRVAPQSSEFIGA
T7 sequence (P00533 25-1210 T790M/C797S/L858R): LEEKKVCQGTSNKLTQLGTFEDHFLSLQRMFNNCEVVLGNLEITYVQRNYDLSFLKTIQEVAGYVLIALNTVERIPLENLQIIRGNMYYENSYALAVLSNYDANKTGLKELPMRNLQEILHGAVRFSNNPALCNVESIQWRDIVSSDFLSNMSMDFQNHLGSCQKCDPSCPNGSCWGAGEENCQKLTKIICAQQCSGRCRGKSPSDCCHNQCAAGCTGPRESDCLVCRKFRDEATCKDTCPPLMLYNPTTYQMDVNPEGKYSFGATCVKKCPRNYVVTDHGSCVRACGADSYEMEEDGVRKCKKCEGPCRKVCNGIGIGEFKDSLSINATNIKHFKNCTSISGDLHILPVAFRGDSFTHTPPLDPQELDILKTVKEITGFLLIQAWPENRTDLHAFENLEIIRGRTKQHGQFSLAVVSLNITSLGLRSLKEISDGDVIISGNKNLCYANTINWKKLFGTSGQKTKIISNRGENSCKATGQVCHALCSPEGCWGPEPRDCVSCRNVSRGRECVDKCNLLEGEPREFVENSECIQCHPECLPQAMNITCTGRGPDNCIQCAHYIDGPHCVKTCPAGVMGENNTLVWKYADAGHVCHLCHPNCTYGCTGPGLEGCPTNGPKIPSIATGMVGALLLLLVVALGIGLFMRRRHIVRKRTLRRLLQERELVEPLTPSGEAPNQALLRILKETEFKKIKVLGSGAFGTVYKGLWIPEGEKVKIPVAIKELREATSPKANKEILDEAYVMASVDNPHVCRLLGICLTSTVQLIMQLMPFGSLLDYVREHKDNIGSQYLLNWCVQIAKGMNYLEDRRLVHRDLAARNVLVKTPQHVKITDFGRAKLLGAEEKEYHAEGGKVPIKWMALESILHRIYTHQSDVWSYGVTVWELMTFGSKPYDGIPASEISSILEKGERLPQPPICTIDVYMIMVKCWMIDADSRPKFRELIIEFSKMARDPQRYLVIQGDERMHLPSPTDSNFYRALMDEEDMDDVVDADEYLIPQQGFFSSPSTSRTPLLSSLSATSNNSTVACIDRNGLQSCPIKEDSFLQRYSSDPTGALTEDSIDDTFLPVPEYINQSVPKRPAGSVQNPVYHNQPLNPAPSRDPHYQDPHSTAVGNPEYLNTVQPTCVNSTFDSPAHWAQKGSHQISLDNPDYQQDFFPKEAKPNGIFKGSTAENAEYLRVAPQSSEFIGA
T2 sequence (P00533 with tags, fused parts or gaps DEL746-750/C797S limits assumed): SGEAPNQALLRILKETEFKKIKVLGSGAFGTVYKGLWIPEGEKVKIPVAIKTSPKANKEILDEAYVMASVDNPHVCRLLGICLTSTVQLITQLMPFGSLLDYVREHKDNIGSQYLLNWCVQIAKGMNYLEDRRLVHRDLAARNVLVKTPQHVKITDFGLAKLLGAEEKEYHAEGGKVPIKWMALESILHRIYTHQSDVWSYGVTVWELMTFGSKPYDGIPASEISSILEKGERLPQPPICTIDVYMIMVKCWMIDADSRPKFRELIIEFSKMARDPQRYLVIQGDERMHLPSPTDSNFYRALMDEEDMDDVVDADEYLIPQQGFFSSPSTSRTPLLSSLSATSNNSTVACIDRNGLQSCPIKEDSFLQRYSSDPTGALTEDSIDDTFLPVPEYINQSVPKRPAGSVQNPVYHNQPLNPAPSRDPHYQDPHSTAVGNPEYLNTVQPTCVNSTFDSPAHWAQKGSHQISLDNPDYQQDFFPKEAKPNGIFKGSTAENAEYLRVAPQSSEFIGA
T4 sequence (P00533 with tags, fused parts or gaps DEL746-750/T790M limits assumed): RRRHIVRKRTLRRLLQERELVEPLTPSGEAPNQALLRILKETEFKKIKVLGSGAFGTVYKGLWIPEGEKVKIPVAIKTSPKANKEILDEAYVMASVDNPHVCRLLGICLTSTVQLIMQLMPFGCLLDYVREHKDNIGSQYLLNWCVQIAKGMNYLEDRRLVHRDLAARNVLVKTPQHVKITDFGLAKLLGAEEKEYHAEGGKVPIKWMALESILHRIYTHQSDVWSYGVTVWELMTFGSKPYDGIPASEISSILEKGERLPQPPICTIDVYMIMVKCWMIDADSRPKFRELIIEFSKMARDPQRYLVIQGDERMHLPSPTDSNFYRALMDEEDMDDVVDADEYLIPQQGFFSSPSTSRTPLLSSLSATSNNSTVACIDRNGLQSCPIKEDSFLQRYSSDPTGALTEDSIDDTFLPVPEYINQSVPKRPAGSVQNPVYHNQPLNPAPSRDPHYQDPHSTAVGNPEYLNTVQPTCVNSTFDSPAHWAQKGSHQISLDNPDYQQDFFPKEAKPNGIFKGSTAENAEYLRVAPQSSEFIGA
T8 sequence (P00533 with tags, fused parts or gaps DEL746-750/T790M/C797S limits assumed): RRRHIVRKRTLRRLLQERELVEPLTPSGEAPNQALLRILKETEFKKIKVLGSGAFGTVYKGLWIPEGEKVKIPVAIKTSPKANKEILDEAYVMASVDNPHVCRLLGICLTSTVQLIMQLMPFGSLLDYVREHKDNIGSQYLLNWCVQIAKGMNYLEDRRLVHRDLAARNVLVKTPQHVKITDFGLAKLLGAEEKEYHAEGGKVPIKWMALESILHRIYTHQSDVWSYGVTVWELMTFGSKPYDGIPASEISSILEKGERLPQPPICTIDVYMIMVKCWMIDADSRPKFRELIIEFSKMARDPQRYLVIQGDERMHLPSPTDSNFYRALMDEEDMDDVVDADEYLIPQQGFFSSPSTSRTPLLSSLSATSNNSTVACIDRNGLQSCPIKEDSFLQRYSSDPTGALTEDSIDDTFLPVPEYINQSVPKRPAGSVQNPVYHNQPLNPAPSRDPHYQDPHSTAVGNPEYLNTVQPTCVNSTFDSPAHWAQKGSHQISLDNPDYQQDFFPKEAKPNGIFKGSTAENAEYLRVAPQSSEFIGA
T5 sequence (P00533 25-1210 T790M/L858R): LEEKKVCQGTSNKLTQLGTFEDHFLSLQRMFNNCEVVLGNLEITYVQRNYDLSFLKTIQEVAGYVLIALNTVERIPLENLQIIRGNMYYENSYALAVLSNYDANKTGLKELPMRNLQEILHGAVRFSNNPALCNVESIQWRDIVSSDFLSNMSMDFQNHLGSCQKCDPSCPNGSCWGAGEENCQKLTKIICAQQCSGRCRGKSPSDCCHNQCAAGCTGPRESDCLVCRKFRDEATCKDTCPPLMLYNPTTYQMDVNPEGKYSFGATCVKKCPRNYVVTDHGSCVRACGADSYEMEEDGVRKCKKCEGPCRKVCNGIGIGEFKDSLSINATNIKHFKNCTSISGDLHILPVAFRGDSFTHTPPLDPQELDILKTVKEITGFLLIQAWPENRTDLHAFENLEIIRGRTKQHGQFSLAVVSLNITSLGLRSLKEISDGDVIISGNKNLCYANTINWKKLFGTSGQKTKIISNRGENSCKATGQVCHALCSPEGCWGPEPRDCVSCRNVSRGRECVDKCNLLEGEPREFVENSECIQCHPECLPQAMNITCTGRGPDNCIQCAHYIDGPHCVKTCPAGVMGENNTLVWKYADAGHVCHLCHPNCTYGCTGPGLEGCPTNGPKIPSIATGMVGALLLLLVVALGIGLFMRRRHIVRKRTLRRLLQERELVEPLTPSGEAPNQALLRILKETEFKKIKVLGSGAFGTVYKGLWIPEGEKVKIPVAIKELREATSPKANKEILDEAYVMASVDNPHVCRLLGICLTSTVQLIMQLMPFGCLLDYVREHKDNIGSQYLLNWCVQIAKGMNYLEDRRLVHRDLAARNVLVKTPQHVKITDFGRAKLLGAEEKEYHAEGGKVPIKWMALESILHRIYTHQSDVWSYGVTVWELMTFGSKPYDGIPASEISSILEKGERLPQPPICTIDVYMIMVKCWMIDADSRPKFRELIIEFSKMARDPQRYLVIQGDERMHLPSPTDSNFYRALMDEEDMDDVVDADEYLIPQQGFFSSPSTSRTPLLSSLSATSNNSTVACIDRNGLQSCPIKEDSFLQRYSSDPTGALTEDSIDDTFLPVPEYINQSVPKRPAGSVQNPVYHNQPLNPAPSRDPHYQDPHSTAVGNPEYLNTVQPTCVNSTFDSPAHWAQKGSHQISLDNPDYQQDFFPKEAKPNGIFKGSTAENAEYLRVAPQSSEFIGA

SMILES | IC50 (EGFR L858R; read-out: IC50 @L858R) | GI50 (A-431; [3]) | IC50 (EGFR (d746-750 C797S); read-out: IC50 @Del19-C797S) | IC50 (EGFR wild type; read-out: IC50 @WT) | IC50 (EGFR Exon19Del/T790M; read-out: IC50 @Del19-T790M) | IC50 (EGFR L858R/T790M; read-out: IC50 @L858R-T790M) | IC50 (EGFR Exon19Del; [4]) | IC50 (EGFR[T790M/C797S/L858R]; [5]) | IC50 [2, 6] | IC50 (EGFR (C797S L858R); read-out: IC50 @L858-C797S) | GI50 (PC-9) | GI50 [1, 7] | GI50 [1, 8] | GI50 [1, 9] | GI50 [1, 10] | GI50 [1, 11] | GI50 [1, 12] | GI50 [1, 13] | GI50 (A-431; A-431 cells) | also measured
Cc1cc2cc(n1)-c1cnn(C)c1OCCN1CC3CCC(C3)(C1)n1c(nc3ccccc31)NC2=O (single isomer, unassigned) [Example B8A, 15,21-dimethyl-23-oxa-2,9,11,16,20,21,26-heptaazaheptacyclo[24.4.1.1^{1,28}.1^{13,17}.0^{2,10}.0^{3,8}.0^{18,22}]tritriaconta-3,5,7,9,13,15,17(33),18(22),19-nonaen-12-one] | > 5000 nM | 6390 nM | 659 nM | > 5000 nM | 4000 nM | > 5000 nM | 729 nM | > 5000 nM | 3990 nM | > 5000 nM |  |  |  |  |  |  |  |  |  | GI50 (PC-9; Homo sapiens, PC-9, 72 h): 2850 nM; GI50 ([1]; Mus musculus, BaF3, 72 h, BaF3 cells, EGFR DEL19 - C797S, read-out: GI50 DEL19 - C797S/BaF3): 620 nM; GI50 ([1]; Mus musculus, BaF3, 72 h, BaF3 cells, EGFR DEL19 - T790-C797S, read-out: GI50 DEL19 - T790-C797S/BaF3): 251 nM; GI50 ([1]; Mus musculus, BaF3, 72 h, BaF3 cells, EGFR L858R - C797S, read-out: GI50 L858R - C797S/BaF3): 2120 nM; GI50 ([1]; Mus musculus, BaF3, 72 h, BaF3 cells, EGFR L858R - T790-C797S, read-out: GI50 L858R - T790-C797S/BaF3): 290 nM; GI50 ([1]; Mus musculus, BaF3, 72 h, BaF3 cells, EGFR L858R - T790M, read-out: GI50 L858R - T790M/BaF3): 1170 nM; GI50 ([1]; Mus musculus, BaF3, 72 h, BaF3 cells, EGFR L858R, read-out: GI50 L858R/BaF3): 3560 nM; GI50 ([1]; Mus musculus, BaF3, 72 h, EGFR DEL19 - T790M, read-out: GI50 DEL19 - T790M): 298 nM
Cc1cc2cc(n1)-c1cnn(C)c1OCCN1CC3CCC(C3)(C1)n1c(nc3ccc(N4CCC(N(C)C)CC4)cc31)NC2=O (single isomer, unassigned) [Example B40B, 5-[4-(dimethylamino)piperidin-1-yl]-15,21-dimethyl-23-oxa-2,9,11,16,20,21,26-heptaazaheptacyclo[24.4.1.1^{1,28}.1^{13,17}.0^{2,10}.0^{3,8}.0^{18,22}]tritriaconta-3,5,7,9,13,15,17(33),18(22),19-nonaen-12-one] |  | 333 nM |  |  |  |  |  |  |  |  | 9 nM | 2 nM | 2 nM | 6 nM | 2 nM | 2 nM | 8 nM | 2 nM |  | IC50 (EGFR L858R; IC50 @L858R): 15 nM; IC50 (EGFR (d746-750 C797S); IC50 @Del19-C797S): 2.2 nM; IC50 (EGFR wild type; IC50 @WT): 100 nM; IC50 (EGFR Exon19Del/T790M; IC50 @Del19-T790M): 4.7 nM; IC50 (EGFR L858R/T790M; IC50 @L858R-T790M): 3.3 nM; IC50 (EGFR Exon19Del; IC50 @Del19, EGFR Exon19Del): 4.5 nM; IC50 (EGFR[T790M/C797S/L858R]; IC50 @T790M- C797S - L858R): 2.4 nM; IC50 ([2]; IC50 @T790M - C797S - Del19, EGFR[T790M/C797S/d746-750]): 2.3 nM; IC50 (EGFR (C797S L858R); IC50 @L858-C797S): 4.4 nM

Now from value to compound, other results behind:

IC50 (EGFR L858R; read-out: IC50 @L858R) | GI50 (A-431; [3]) | IC50 (EGFR (d746-750 C797S); read-out: IC50 @Del19-C797S) | IC50 (EGFR wild type; read-out: IC50 @WT) | IC50 (EGFR Exon19Del/T790M; read-out: IC50 @Del19-T790M) | IC50 (EGFR L858R/T790M; read-out: IC50 @L858R-T790M) | IC50 (EGFR Exon19Del; [4]) | IC50 (EGFR[T790M/C797S/L858R]; [5]) | IC50 [2, 6] | IC50 (EGFR (C797S L858R); read-out: IC50 @L858-C797S) | GI50 (PC-9) | GI50 [1, 7] | GI50 [1, 8] | GI50 [1, 9] | GI50 [1, 10] | GI50 [1, 11] | GI50 [1, 12] | GI50 [1, 13] | GI50 (A-431; A-431 cells) | SMILES | also measured
212 nM |  | 2.3 nM | 3370 nM | 2.8 nM | 2.6 nM | 4.6 nM | 2.6 nM | 2.2 nM | 59 nM | 41 nM | 0.79 nM | 0.84 nM | 18 nM | 0.91 nM | 2.1 nM | 24 nM | 0.89 nM | 1730 nM | Cc1cc2cc(n1)-c1cnn(C)c1OCCN1CC3CCC(C3)(C1)n1c(nc3ccc(N4CCOCC4)cc31)NC2=O (single isomer, unassigned) [Example B10A, 15,21-Dimethyl-5-(morpholin-4-yl)-23-oxa-2,9,11,16,20,21,26-heptaazaheptacyclo[24.4.1.1^{1,28}.1^{13,17}.0^{2,10}.0^{3,8}.0^{18,22}]tritriaconta-3,5,7,9,13,15,17(33),18(22),19-nonaen-12-one] | 
> 5000 nM |  | 1430 nM | > 5000 nM | > 5000 nM | > 5000 nM | 1080 nM | > 5000 nM | 4040 nM | > 5000 nM | 2620 nM | 403 nM | 516 nM | 1580 nM | 595 nM | 539 nM | 2910 nM | 765 nM | 5520 nM | Cc1cc2cc(n1)-c1cnn(C)c1OCCN1CC3CCC(C3)(C1)n1c(nc3ccc(N4CCOCC4)cc31)NC2=O (single isomer, unassigned) [Example B10B, 15,21-Dimethyl-5-(morpholin-4-yl)-23-oxa-2,9,11,16,20,21,26-heptaazaheptacyclo[24.4.1.1^{1,28}.1^{13,17}.0^{2,10}.0^{3,8}.0^{18,22}]tritriaconta-3,5,7,9,13,15,17(33),18(22),19-nonaen-12-one] | 
34 nM | 1790 nM | 3 nM | 581 nM | 4.9 nM | 4.2 nM | 7.5 nM | 2.2 nM | 3.3 nM | 8.8 nM | 8 nM | 2 nM | 2 nM | 7 nM | 2 nM | 2 nM | 12 nM | 2 nM |  | Cc1cc2cc(n1)-c1cnn(C)c1OCCN1CC3CCC(C3)(C1)n1c(nc3ccc(N4CC[C@H](N(C)C)C4)cc31)NC2=O (single isomer, unassigned) [Example B41B] | 
